What was measured:
[1] = molecular target: Tyrosine-protein kinase CSK (Homo sapiens) (UniProt P41240); experiment: Inhibition of human CSK using poly[Glu:Tyr] (4:1) as substrate at 1 uM in presence of 32P-ATP by Hotspot assay relative to control; values are per cent of control
[2] = molecular target: T1, Megakaryocyte-associated tyrosine-protein kinase (Homo sapiens) (UniProt P42679); experiment: Inhibition of human CTK/MATK using poly[Glu:Tyr] (4:1) as substrate at 1 uM in presence of 32P-ATP by Hotspot assay relative to control; values are per cent of control
T1 sequence (whole entry): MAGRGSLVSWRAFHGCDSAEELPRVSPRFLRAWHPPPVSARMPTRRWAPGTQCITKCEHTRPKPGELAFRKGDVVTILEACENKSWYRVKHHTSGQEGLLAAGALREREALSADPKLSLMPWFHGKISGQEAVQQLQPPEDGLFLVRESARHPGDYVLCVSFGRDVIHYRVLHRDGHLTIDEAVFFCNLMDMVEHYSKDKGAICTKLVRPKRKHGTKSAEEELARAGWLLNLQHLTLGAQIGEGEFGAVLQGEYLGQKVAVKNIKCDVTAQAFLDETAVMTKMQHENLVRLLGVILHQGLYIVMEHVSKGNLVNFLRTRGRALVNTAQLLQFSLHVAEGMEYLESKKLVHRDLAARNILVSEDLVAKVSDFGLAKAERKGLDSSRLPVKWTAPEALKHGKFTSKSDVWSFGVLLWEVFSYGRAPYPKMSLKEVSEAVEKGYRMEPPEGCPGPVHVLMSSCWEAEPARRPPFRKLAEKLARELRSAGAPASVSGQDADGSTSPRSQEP

[3] = molecular target: Dual specificity mitogen-activated protein kinase kinase 1 (Homo sapiens) (UniProt Q02750); experiment: Residual activity of human MEK1 using ERK2 (K52R) as substrate at 1 uM in presence of 32P-ATP by Hotspot assay relative to control
[4] = molecular target: Mitogen-activated protein kinase 9 (Homo sapiens) (UniProt P45984); experiment: Inhibition of human JNK2 using ATF2 as substrate at 1 uM in presence of 32P-ATP by Hotspot assay relative to control; values are per cent of control
[5] = molecular target: T2, Beta-adrenergic receptor kinase 1 (Homo sapiens) (UniProt P25098); experiment: Inhibition of human GRK2 using casein as substrate at 1 uM in presence of 32P-ATP by Hotspot assay relative to control; values are per cent of control
T2 sequence (whole entry): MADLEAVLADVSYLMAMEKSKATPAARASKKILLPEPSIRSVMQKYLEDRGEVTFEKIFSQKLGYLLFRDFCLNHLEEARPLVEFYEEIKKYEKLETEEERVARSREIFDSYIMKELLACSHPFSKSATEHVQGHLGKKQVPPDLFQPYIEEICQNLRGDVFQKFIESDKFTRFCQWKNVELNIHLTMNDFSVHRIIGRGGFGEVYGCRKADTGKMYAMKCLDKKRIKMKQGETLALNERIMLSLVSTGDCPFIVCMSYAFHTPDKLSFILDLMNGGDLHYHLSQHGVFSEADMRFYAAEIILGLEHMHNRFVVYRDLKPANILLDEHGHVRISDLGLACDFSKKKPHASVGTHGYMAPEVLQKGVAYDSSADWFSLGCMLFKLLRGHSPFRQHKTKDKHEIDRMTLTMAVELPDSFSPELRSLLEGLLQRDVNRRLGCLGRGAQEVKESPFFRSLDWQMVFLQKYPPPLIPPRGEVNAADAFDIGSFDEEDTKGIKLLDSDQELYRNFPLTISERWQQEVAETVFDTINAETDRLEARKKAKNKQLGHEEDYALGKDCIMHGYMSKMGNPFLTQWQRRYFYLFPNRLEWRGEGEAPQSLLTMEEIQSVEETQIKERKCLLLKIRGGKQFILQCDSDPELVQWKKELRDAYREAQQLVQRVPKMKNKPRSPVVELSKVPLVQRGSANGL

[6] = molecular target: T3, Serine/threonine-protein kinase D1 (Homo sapiens) (UniProt Q15139); experiment: Residual activity of human PKCmu/PRKD1 using KKLNRTLSVA as substrate at 1 uM in presence of 32P-ATP by Hotspot assay relative to control
T3 sequence (whole entry): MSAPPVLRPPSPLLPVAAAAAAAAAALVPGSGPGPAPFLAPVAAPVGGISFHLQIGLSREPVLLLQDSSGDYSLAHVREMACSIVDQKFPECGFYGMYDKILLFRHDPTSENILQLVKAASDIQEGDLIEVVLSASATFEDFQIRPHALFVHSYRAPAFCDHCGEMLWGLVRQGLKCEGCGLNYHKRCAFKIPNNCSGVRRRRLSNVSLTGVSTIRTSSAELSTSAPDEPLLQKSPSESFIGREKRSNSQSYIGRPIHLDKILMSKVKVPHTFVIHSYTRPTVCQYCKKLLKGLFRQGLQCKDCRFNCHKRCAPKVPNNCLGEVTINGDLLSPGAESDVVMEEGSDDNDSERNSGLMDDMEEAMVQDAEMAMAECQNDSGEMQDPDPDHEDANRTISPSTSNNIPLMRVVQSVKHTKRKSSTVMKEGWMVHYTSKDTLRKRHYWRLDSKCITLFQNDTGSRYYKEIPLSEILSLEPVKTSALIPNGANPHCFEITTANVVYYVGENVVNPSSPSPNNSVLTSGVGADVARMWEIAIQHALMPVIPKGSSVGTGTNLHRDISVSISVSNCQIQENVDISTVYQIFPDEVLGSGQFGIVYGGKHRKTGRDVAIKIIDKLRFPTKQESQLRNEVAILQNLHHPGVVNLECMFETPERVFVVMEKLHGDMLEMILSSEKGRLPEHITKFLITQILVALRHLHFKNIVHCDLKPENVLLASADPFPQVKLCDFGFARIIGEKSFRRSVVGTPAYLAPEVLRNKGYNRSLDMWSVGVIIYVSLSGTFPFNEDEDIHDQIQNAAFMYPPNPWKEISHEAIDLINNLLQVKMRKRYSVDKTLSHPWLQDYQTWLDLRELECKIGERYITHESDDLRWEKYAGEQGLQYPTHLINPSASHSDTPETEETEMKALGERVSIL

[7] = molecular target: High affinity nerve growth factor receptor (Homo sapiens) (UniProt P04629); experiment: Inhibition of human TRKA using poly[Glu:Tyr] (4:1) as substrate at 1 uM in presence of 32P-ATP by Hotspot assay relative to control
[8] = molecular target: Calcium/calmodulin-dependent protein kinase type II subunit alpha (Homo sapiens) (UniProt Q9UQM7); experiment: Inhibition of human CAMK2a using KKALRRQETVDAL as substrate at 1 uM in presence of 32P-ATP by Hotspot assay relative to control; values are per cent of control
Calcium/calmodulin-dependent protein kinase type II subunit alpha (Homo sapiens), sequence (Q9UQM7 whole entry): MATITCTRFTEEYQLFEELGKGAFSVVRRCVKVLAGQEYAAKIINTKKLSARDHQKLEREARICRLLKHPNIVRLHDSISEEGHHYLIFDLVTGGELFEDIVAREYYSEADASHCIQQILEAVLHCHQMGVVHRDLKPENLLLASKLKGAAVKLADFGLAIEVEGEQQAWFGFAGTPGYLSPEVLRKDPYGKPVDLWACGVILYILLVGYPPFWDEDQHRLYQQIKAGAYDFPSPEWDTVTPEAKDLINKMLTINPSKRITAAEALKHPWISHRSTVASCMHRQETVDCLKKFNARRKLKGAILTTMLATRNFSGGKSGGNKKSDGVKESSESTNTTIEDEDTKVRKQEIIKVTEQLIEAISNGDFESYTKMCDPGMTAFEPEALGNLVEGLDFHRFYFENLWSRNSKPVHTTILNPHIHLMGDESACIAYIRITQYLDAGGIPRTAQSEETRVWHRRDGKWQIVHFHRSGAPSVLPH

Tyrosine-protein kinase CSK (Homo sapiens), sequence (P41240 2-450 limits assumed): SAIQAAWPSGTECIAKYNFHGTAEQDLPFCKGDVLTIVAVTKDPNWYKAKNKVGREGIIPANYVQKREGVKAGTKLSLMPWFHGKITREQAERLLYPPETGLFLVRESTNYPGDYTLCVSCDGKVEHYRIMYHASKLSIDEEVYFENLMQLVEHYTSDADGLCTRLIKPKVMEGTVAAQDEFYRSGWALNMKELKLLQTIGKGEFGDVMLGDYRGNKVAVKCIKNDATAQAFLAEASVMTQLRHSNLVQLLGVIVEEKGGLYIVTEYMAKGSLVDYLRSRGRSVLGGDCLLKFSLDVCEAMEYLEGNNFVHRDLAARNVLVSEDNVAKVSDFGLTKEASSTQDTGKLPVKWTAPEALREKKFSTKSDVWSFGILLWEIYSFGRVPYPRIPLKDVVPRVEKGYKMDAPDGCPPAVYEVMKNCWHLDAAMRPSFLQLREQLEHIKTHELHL
Dual specificity mitogen-activated protein kinase kinase 1 (Homo sapiens), sequence (Q02750 whole entry): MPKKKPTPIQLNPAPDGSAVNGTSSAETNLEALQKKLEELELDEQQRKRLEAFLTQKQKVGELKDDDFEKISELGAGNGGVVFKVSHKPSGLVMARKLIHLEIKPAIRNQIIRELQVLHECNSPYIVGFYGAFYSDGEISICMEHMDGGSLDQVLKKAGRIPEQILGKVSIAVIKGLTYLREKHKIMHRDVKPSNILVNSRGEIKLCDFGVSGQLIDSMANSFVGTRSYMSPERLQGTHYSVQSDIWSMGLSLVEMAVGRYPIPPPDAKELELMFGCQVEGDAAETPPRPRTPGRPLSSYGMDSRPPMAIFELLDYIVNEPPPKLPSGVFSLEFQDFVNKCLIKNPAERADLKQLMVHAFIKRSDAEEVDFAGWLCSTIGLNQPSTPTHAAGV
Mitogen-activated protein kinase 9 (Homo sapiens), sequence (P45984 whole entry, looked up): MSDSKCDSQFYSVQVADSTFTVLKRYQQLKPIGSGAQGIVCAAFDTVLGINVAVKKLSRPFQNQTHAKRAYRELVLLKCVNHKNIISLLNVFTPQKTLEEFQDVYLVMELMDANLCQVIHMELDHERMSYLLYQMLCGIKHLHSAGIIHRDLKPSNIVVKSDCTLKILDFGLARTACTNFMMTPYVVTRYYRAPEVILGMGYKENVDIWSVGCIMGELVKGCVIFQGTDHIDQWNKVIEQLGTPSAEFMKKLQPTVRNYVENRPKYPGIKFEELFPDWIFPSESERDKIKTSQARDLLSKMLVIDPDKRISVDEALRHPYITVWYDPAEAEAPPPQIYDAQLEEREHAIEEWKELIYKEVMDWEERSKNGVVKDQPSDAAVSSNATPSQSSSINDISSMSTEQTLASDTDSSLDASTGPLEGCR
High affinity nerve growth factor receptor (Homo sapiens), sequence (P04629 33-796 limits assumed): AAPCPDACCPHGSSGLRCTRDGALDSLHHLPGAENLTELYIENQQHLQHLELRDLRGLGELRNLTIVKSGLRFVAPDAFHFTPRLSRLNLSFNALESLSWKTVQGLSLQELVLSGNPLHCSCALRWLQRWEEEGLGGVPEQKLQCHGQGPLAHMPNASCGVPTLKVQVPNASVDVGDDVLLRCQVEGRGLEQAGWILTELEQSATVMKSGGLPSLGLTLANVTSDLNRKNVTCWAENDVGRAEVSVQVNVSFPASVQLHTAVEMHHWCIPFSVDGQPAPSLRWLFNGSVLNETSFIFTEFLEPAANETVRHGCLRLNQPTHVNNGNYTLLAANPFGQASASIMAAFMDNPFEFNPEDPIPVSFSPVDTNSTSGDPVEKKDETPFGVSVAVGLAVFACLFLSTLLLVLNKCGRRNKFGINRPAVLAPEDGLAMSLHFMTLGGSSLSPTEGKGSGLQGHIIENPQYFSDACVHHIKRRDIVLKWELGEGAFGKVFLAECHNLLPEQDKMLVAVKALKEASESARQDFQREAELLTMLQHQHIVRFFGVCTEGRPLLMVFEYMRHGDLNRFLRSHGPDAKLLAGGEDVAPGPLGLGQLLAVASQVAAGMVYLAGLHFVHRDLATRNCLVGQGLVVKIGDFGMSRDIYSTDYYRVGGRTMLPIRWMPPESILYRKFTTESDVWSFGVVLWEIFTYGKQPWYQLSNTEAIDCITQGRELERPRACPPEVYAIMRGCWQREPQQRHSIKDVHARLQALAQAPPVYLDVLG

Row | Compound | residual activity [1] | residual activity [2] | residual activity [3] | residual activity [4] | residual activity [5] | residual activity [6] | inhibition [7] | residual activity [8]
1 | CC(C)S(=O)(=O)c1ccc2nccc(Nc3ccc4scnc4c3)c2c1 | 58.8% | 98.5% | 102% | 106% | 101% | 98.9% | 89.3% | 100%
2 | Cc1cc(-c2cnc(N)c3c(-c4ccc5scnc5c4)csc23)n(C)n1 | 69.5% | 79.2% | 59.7% | 69.7% | 101% | 51.6% | 84.7% | 104%
3 | CNC(=O)c1ccc2c(c1)ncn2-c1ccc(CC(=O)OC(C)(C)C)cc1 | 78.6% | 93.7% | 86.8% | 96.6% | 97.7% | 99.5% | 79.5% | 94.7%
